From PMC6384758, “Profiling and Pharmacokinetic Studies of Alkaloids in Rats After Oral Administration of Zanthoxylum nitidum Decoction by UPLC-Q-TOF-MS/MS and HPLC-MS/MS” (Molecules, 2019)
Like-named read-outs stand apart in the source and are kept apart here. Blank lines part the entries; values can stand above or below the compound they belong to.

Legend:
[1] = Pharmacokinetic study in rats after oral administration of Z. nitidum decoction (HPLC-MS/MS); type: in vivo, Sprague–Dawley rats; details: for AUC(0-t) / AUC(0-inf) / Cmax / half-life / Tmax: Sprague-Dawley
Method: The HPLC analysis performed on a Surveyor plus HPLC system (Thermo Fisher Scientific, Waltham, MA, USA). The separation was executed by a Thermo Accucore aq C18 column (100 × 2.1 mm, 2.6 μm) (Thermo Fisher Scientific, Waltham, MA, USA) maintained at 30 °C. The mobile phase consisted of Solvent A (0.1% formic acid solution) and Solvent B (0.1% formic acid acetonitrile). The flow rate was 0.3 mL/min. The gradient program was as follows: 5–10% B at 0–5 min; 10–100% B at 5–15 min; 100–5% B at 15–15.1 min; 5% B at 15–20 min.
MS data were achieved on a triple-quadrupole mass spectrometer: TSQ Quantum Access (Thermo Fisher Scientific, Waltham, MA, USA) with electrospray ionization (ESI) source in positive mode. The instrument parameters were as follows: spray voltage at 3000 V, sheath gas and auxiliary gas with a flow of 30 and 5 arbitrary units, capillary temperature at 350 °C, collision gas pressure at 1.0 mTorr, skimmer offset at 2 V. The selected reaction monitoring (SRM) transitions used for MS analysis were as follows: m/z 342→297 for magnoflorine, 370→188 for α-allocryptopine, 260→227 for skimmianine, 356→192 for IS; the collision energies at 15 eV for magnoflorine, 30 eV for α-allocryptopine, skimmianine and IS. The data acquisition and processing was performed with Xcalibur 2.0 software (Thermo Fisher Scientific, Waltham, MA, USA).
100 μL plasma sample, 10 μL IS solution (200 ng/mL) and 300 μL acetonitrile were added to a 1.5 mL eppendorf tube and vortex-mixed for 5 min, then centrifuged at 13,000 (15,493× g) rpm for 10 min. The supernatant was transferred into another eppendorf tube and evaporated to dryness at 35 °C in vacuum using SpeedVac Concentration ((RVC 2-18, Christ). The residue was reconstituted in 100 μL acetonitrile and water (50:50, v/v) and centrifuged at 13,000 rpm (15,493× g) for 15 min.
For pharmacokinetic study, six rats were orally administered Z. nitidum decoction at a dose of 5.4 mL kg^−1 (5.4 mL decoction equal to 10.8 g crude drug) body weight. The blood samples were collected from orbital vein before dose and 0.17, 0.33, 0.67, 1, 2, 3, 4, 6, 8, 10, 12, and 24 after dose. The blood samples were then centrifuged at 3500 rpm (1274× g) for 15 min at 4 °C. The samples were stored at −80 °C. Data analysis was performed by Drug and Statistics (DAS) 2.0 software (Mathematical Pharmacology Professional Committee of China, Shanghai, China).

[2] = Stability of analytes in rat plasma under storage conditions; type: in vitro ADME
Method: The selectivity was assessed by analyzing the chromatograms of blank plasma of six different rats, a blank plasma with magnoflorine, α-allocryptopine, skimmianine and IS, and a plasma after dose. The linearity was determined by plotting the peak areas ratios (y) of each analyte to IS against the concentrations, and evaluated by least-squares linear regression. The lower limit of quantification (LLOQ) was defined as the lowest concentration point of the calibration curve (S/N > 10) with the accuracy within ±20% and precision lower than 20%. The accuracy and precision were evaluated by analyzing the six replicate QC samples on the same day (intra-day) and three consecutive days. The accuracy and precision were expressed as relative error (RE%) and relative standard deviation (RSD%), respectively. The extraction recovery was determined by comparing peak areas of the extracted QC samples with those of post-extracted spiked samples. The matrix effects was measured by calculated the analytes peak area ratios of post-extracted spiked samples to those of pure work solution. The stability was investigated by analyzing samples stability under diverse storage conditions: three freeze-thaw cycles, 8 h at 25 °C, −80 °C for 40 days and in autosampler for 24 h.

[3] = rats, oral Z. nitidum decoction

SMILES: COc1ccc2c(c1O)-c1c(O)c(OC)cc3c1[C@H](C2)[N+](C)(C)CC3 [Magnoflorine, magnoflorine]
Stability, RE (%) ([2]; rat, 5 ng/mL): −10.00%
Stability, RE (%) ([2]; rat, 50 ng/mL): 11.03%
Stability, RE (%) ([2]; rat, 160 ng/mL): 9.16%
Stability, RE (%) ([2]; rat, 8 h, 5 ng/mL): −5.14%
Stability, RE (%) ([2]; rat, 8 h, 50 ng/mL): 6.87%
Stability, RE (%) ([2]; rat, 8 h, 160 ng/mL): 5.74%
Stability, RE (%) ([2]; rat, 24 h, 5 ng/mL): −5.59%
Stability, RE (%) ([2]; rat, 24 h, 50 ng/mL): 9.24%
Stability, RE (%) ([2]; rat, 24 h, 160 ng/mL): 4.61%
Stability, RE (%) ([2]; rat, 40 days, 5 ng/mL): 10.17%
Stability, RE (%) ([2]; rat, 40 days, 50 ng/mL): −8.92%
Stability, RE (%) ([2]; rat, 40 days, 160 ng/mL): 5.74%
AUC(0-t) ([1]; rat plasma, oral Z. nitidum decoction 5.4 mL kg−1, Mean ± SD, n = 6, read-out: AUC0-t): 408 ± 91.3 ng·h/mL
AUC(0-inf) ([1]; rat plasma, oral Z. nitidum decoction 5.4 mL kg−1, Mean ± SD, n = 6, read-out: AUC0-∞): 438 ± 106 ng·h/mL
Cmax ([1]; rat plasma, oral Z. nitidum decoction 5.4 mL kg−1, Mean ± SD, n = 6, read-out: Cmax): 113 ± 18.8 ng/mL
half-life ([1]; rat plasma, oral Z. nitidum decoction 5.4 mL kg−1, Mean ± SD, n = 6, read-out: T1/2 (converted)): 194 ± 78.6 min
Tmax ([1]; rat plasma, oral Z. nitidum decoction 5.4 mL kg−1, Mean ± SD, n = 6, read-out: Tmax): 63 ± 42.6 min
Cmax compared with that of skimmianine [1, 3]: about ten times higher
total exposure AUC0–∞ compared among the three components (in words) [1, 3]: the largest

SMILES: COc1ccc2c(c1OC)CN(C)CCc1cc3c(cc1C(=O)C2)OCO3 [α-allocryptopine]
Stability, RE (%) ([2]; rat plasma, 8 h at room temperature, 5 ng/mL, n = 6): 12.53%
Stability, RE (%) ([2]; rat plasma, 8 h at room temperature, 50 ng/mL, n = 6): −7.13%
Stability, RE (%) ([2]; rat plasma, 8 h at room temperature, 160 ng/mL, n = 6): 3.27%
Stability, RE (%) ([2]; rat plasma, 24 h at 4 °C, 5 ng/mL, n = 6): 2.99%
Stability, RE (%) ([2]; rat plasma, 24 h at 4 °C, 50 ng/mL, n = 6): −6.21%
Stability, RE (%) ([2]; rat plasma, 24 h at 4 °C, 160 ng/mL, n = 6): 7.75%
Stability, RE (%) ([2]; rat plasma, 40 days at −80 °C, 5 ng/mL, n = 6): 8.59%
Stability, RE (%) ([2]; rat plasma, 40 days at −80 °C, 50 ng/mL, n = 6): −4.82%
Stability, RE (%) ([2]; rat plasma, 40 days at −80 °C, 160 ng/mL, n = 6): −6.91%
Stability, RE (%) ([2]; rat plasma, three freeze-thaw cycle, 5 ng/mL, n = 6): 8.97%
Stability, RE (%) ([2]; rat plasma, three freeze-thaw cycle, 50 ng/mL, n = 6): −5.58%
Stability, RE (%) ([2]; rat plasma, three freeze-thaw cycle, 160 ng/mL, n = 6): 4.24%
AUC(0-t) ([1]; in vivo, rat plasma, oral Z. nitidum decoction 5.4 mL kg−1, Mean ± SD, n = 6, read-out: AUC0-t): 180 ± 96.3 ng·h/mL
AUC(0-inf) ([1]; in vivo, rat plasma, oral Z. nitidum decoction 5.4 mL kg−1, Mean ± SD, n = 6, read-out: AUC0-∞): 186 ± 98.7 ng·h/mL
Cmax ([1]; in vivo, rat plasma, oral Z. nitidum decoction 5.4 mL kg−1, Mean ± SD, n = 6, read-out: Cmax): 100 ± 49.9 ng/mL
half-life ([1]; in vivo, rat plasma, oral Z. nitidum decoction 5.4 mL kg−1, Mean ± SD, n = 6, read-out: T1/2 (converted)): 46.8 ± 10.2 min
Tmax ([1]; in vivo, rat plasma, oral Z. nitidum decoction 5.4 mL kg−1, Mean ± SD, n = 6, read-out: Tmax): 28.2 ± 7.8 min
Cmax compared with that of skimmianine [1, 3]: about ten times higher

SMILES: COc1ccc2c(c[n+](C)c3c4cc5c(cc4ccc23)OCO5)c1OC [chelerythrine]
absorption (in words) ([1]; preliminary experiment, rats, oral Z. nitidum decoction): poor absorption

Now from value to compound:

absorption (in words) ([1]; rat, in vivo, po): poor absorption
SMILES: COc1cc2c[n+](C)c3c4cc5c(cc4ccc3c2cc1OC)OCO5 [nitidine]

Stability, RE (%) ([2]; rat, 1 ng/mL): 10.43%
Stability, RE (%) ([2]; rat, 10 ng/mL): −5.95%
Stability, RE (%) ([2]; rat, 32 ng/mL): −9.01%
Stability, RE (%) ([2]; rat, 8 h, 1 ng/mL): −9.41%
Stability, RE (%) ([2]; rat, 8 h, 10 ng/mL): 6.62%
Stability, RE (%) ([2]; rat, 8 h, 32 ng/mL): 9.51%
Stability, RE (%) ([2]; rat, 24 h, 1 ng/mL): 9.47%
Stability, RE (%) ([2]; rat, 24 h, 10 ng/mL): −4.39%
Stability, RE (%) ([2]; rat, 24 h, 32 ng/mL): −1.09%
Stability, RE (%) ([2]; rat, 40 days, 1 ng/mL): 9.69%
Stability, RE (%) ([2]; rat, 40 days, 10 ng/mL): −6.48%
Stability, RE (%) ([2]; rat, 40 days, 32 ng/mL): −4.07%
AUC(0-inf) ([1]; rat, in vivo, po): 17.1 ± 6.32 ng·h/mL
AUC(0-t) ([1]; rat, in vivo, po): 11.1 ± 2.02 ng·h/mL
Cmax ([1]; rat, in vivo, po): 8.91 ± 1.89 ng/mL
Tmax ([1]; rat, in vivo, po): 22.8 ± 7.2 min
half-life ([1]; rat, in vivo, po): 359 ± 97.2 min
SMILES: COc1ccc2c(OC)c3ccoc3nc2c1OC [Skimmianine, skimmianine]
